Test results: paper PMC4448987, “A neuroligin-1-derived peptide stimulates phosphorylation of the NMDA receptor NR1 subunit and rescues MK-801-induced decrease in long-term potentiation and memory impairment” (Pharmacology Research & Perspectives, 2015)

Experiments:
hippocampal slices (LTP) = assay: LTP in acute hippocampal slices, peptide added directly to aCSF; parameters: species or system mice; conditions: neurolide-1 alone, 1 µmol/L added to running artificial CSF during baseline before LTP induction
Experimental: Measurements were made in oxygenated aCSF at room temperature (1.1 mL/min). Schaeffer collaterals were stimulated with a bipolar concentric electrode (TM33CCNON; World Precision Instruments, Sarasota, FL). The field potential in the stratum radiatum of the CA1 area of the hippocampus was recorded with an extracellular glass microelectrode (4–6 MΩ, filled with aCSF), positioned at least 500 μm away from the stimulation electrode. The stimulus intensity was set 0.03 mA above the threshold. After a 30-min baseline was obtained with stimulation at 0.05 Hz, long-term potentiation (LTP) was induced by stimulating the Schaeffer collaterals at 100 Hz for 1 s four times at 20 s intervals. A new baseline was established over the following 30 min. Potentiation was estimated by comparing the rising slope of the field excitatory postsynaptic potential (fEPSP) before and 25–30 min after high-frequency stimulation.
Supplementary file prp20003-e00126-sd2.tif: Figure S1. Effect of neurolide-1 on LTP in acute hippocampal slices. Neurolide-1 at a concentration of 1 µmol/L was added directly to the running artificial CSF during baseline measurement before the induction of LTP.
Supplementary Figure S1. Effect of neurolide-1 on LTP in acute hippocampal slices. Neurolide-1 at a concentration of 1 µM was added directly to the running artificial CSF during baseline measurement before the induction of LTP.

male Wistar rats = assay: Y maze test (spontaneous alternation); assay type: in vivo, rat
Experimental: NMDA-mediated effects of Neurolide-1 on spatial working memory performance was assessed by recording spontaneous alternation behavior in a Y maze test performed as described previously (Wegener et al. [2011]), (See Data S1). Initially, adult male Wister rats (420–490 g, n = 6–12; Charles River) were injected s.c., three times at 28, 4, and 2 h before start of the Y maze test. One group received Neurolide-1, saline, and neurolide-1 in this order. Another group received saline, MK-801, and saline in this order. A third group received neurolide-1, MK-801, and neurolide-1 in this order. And control group received saline at all times. In a second setup we tested the effect of neurolide-1 in very young male Wistar rats (4-weeks old) which received a s.c., injection of neurolide-1 or saline 2 h prior to testing them in the Y-maze (n = 11–15). Terminally, rats were rapidly and humanely rendered unconscious by concussive stunning and euthanized by cervical dislocation.
The maze was made of gray polyvinyl chloride, with three identical arms (425 mm length × 225 mm height × 145 mm width) mounted symmetrically to an equilateral triangular center section. Each rat was placed at the end of one arm and allowed to explore the apparatus freely for 8 min. The sequence and number of all arm entries were recorded for each animal throughout the testing period. An alternation was defined as entries into all three arms on consecutive occasions. Therefore, the number of maximal alternation was the total number of arm entries minus 2, and the percentage of alternation was calculated as (actual alternations / maximal alternations) × 100. The total number of arms entered during the sessions was also determined (Yamaguchi et al, 2006). Data were eliminated in cases in which the number of total arm entries was less than 10 or when the rat escaped from the Y maze. After each trial, the Y maze was cleaned with 1% Virkon S (Pharmaxim, Helsingborg, Sweden).

[1] = tested on: NMDA receptor NR1 subunit (serine 897); assay: NMDA receptor phosphorylation assay (immunoblot, anti-phospho-Ser897-NR1) in cultured cortical neurons; assay type: cell-based, Wistar rat; conditions: cultured rat cortical neurons, 0.1, 0.3, 1 and 2.7 μmol/L for 5 min, eight independent experiments
Experimental: Cortical neurons were obtained from Wistar rat embryos at embryonic day 19, of both sexes, basically as previously described (Maar et al. [1997]) (see Data S1). Briefly, animals were rendered unconscious by concussive stunning and euthanized by cervical dislocation. Hereafter, the embryonic brains were collected and cortical neurons were dissociated and seeded in 60-mm tissue culture dishes coated with 1 μg/mL of poly-D-lysine (Sigma-Aldrich, St. Louis, MO) and grown for 8 days before treatment. Then, the cultures were stimulated with either the NL1 ectodomain (0.2, 0.6, 1.8, and 5.4 nmol/L) or neurolide-1 (0.1, 0.3, 1, and 2.7 μmol/L) for 5 min. The cells were lysed, and proteins were resolved by sodium dodecyl sulfate-polyacrylamide gel electrophoresis followed by immunoblotting using rabbit anti-Ser897-NR1 antibody (1:500; Millipore, Billerica, MA), mouse anti-β-tubulin antibody (1:50,000; Sigma-Aldrich), and IRDye secondary antibodies (Odyssey, Lincoln, NE). The bands were visualized using the Odyssey CLX Infrared Imaging System (Odyssey). Four independent experiments with stimulation by NL1 ectodomain and eight independent experiments with stimulation by neurolide-1 were performed.

[2] = tested on: hippocampal slices, CA3-CA1 synapse (fEPSP slope); assay: LTP in acute hippocampal slices from mice injected s.c.; assay type: in vivo, C57BL/6N mice; conditions: mice injected with neurolide-1 10 mg/kg s.c. 24 h and 1 h before sacrifice plus MK-801 0.1 mg/kg s.c.; slope 25-30 min after HFS vs before; mean ± SEM, n = 6
Experimental: Juvenile C57BL/6N mice of both sexes (postnatal day 16–24; Taconic, Ejby, Denmark) were injected subcutaneously (s.c.) with 10 mg/kg of the neurolide-1 peptide solution (10 mg/mL) and again 23 h later with 10 mg/kg of the neurolide-1 peptide solution (10 mg/mL) and 0.1 mg/kg MK-801 solution (0.025 mg/mL). Mice receiving the injection with the MK-801 solution only or untreated mice served as control groups. The young mice were rapidly and humanely euthanized with a minimum of distress by decapitation at a time point corresponding to 24 h after first injection. Preceding anesthetic was omitted to preserve the tissue free of drug residues and brain slice functions as unaltered as possible when performing the physiological measurements. After decapitation, the brain was removed. […]
Measurements were made in oxygenated aCSF at room temperature (1.1 mL/min). […] The field potential in the stratum radiatum of the CA1 area of the hippocampus was recorded with an extracellular glass microelectrode (4–6 MΩ, filled with aCSF), positioned at least 500 μm away from the stimulation electrode. […]

[3] = 4-week-old male Wistar rats, single s.c. treatment 2 h before test, n = 11-15

SEGNRWSNSTKGLFQRA [neurolide-1] was tested, and the “effect on LTP, direct treatment of hippocampal slices” value (hippocampal slices (LTP)) was “did not affect LTP”, the “alternation rate in 4-week-old rats” value (male Wistar rats; [3]) was 76% and the “total number of arms visited in 4-week-old rats” value (male Wistar rats; [3]) was “slightly decreased the total number of arms visited”. For the same sequence, the “working memory performance (alternation rate), peptide alone” value (male Wistar rats; adult rats 420-490 g, neurolide-1 10 mg/kg s.c. 24 and 2 h before test, n = 6-12) was “did not affect performance”, the “total number of arm entries, combined treatment neurolide-1 + MK-801” value (male Wistar rats; adult rats, neurolide-1 10 mg/kg s.c. twice plus MK-801 0.1 mg/kg, n = 6-12) was “significantly increased the total number of arms visited” and the “working memory (alternation rate) in MK-801-treated animals” value (male Wistar rats; adult rats, neurolide-1 10 mg/kg s.c. twice, MK-801 0.1 mg/kg 2 h before second neurolide-1 injection, n = 6-12) was “partially restored working memory”. The “total number of arm entries, single treatment” value (male Wistar rats; adult rats, peptide alone or MK-801 alone, n = 6-12) was “did not change”, the “NR1 phosphorylation on serine 897” value [1] was “induced NR1 phosphorylation proportionally to the increase in peptide concentration” and the “increase of fEPSP slope after high-frequency stimulation (LTP)” value [2] was 57 ± 12%.
